The source of these data is US6046228A, “Anti-viral pharmaceutical compositions containing saturated 1,2-dithiaheterocyclic compounds and uses thereof” (priority 1999, dated 2000).

For assay [1], the system named is HIV-1RF. Kind of assay: XTT cytoprotection (cytopathicity) anti-HIV assay, CEM-SS cells. The format is cell-based. How it is done: (§1) Initial anti-HIV screening was performed with CEM-SS cells and HIV-1RFusing the XTT cytoprotection assay as previously described (Weislow et al., J. National Cancer Inst. 81: 577-586, (1989)). HIV-1 isolates included common laboratory stains (RF, IIIB and MN), as well as a panel of HIV-1 clinical isolates (Cushman et al., J. Med. Chem. 37: 3040-3050, (1994)). The pyridone-resistant HIV-1A17 isolate (Nunberg et al., J. Virol., 65: 4887-4892 (1991)) was obtained from Emilio Emini at Merck Sharpe and Dohme Laboratories. Phytohemagglutinin-stimulated human peripheral blood lymphocytes (PBLs) and fresh monocyte-macrophage (Mono/MF) cultures were prepared and utilized in antiviral assays as previously described (Rice et al., Proc. Nat'l. Academy Science, USA 90: 9721-9724, (1993)); (Cushman et al., J. Med. Chem. 37: 3040-3050, (1994)). EC50 values for these cultures indicate the drug concentration that provided a 50% reduction in viral p24 production. […] The compounds can be synthesized according to the teachings of Singh et al., Sulfur Letters 8: 107-114, (1988). […] MT-2, MT-4, U1, HeLa-CD4-LTR-β-gal and 174xCEM cells were obtained from the AIDS Research and Reference Program (National Institute of Allergy and Infectious Disease, National Institutes of Health, Bethesda, Md. USA), as were the HIV-2MS and the AZT-resistant HIV-1G910-6 isolates.
(§2) Racemate and enantiomers of the cis-1,1-dioxo[1,2]dithiane-4,5-diol were synthesized and evaluated for antiviral activity in the XTT assay as described hereinabove.
(Tetrazolium dyes change colour on reduction, which living cells bring about.)

For another assay, the system named is CEM-SS cells. Kind of assay: XTT assay, cytotoxicity (IC50), CEM-SS cells. The format is cell-based. How it is done:
as §1, §2

The next assay deals with T1, HIV-1 p7NC protein (Human immunodeficiency virus type 1 group M subtype B, UniProt P04591).
T1 construct: recombinant HIV-1 p7NC protein
Kind of assay: Trp37 zinc finger fluorescence assay (zinc ejection from p7NC). The format is biochemical. To be noted: for p7NC Trp37 Assay (RFU): 25 μM compound, listed as 693195. How it is done: Fluorescence measurements of the Trp^37 residue in the C-terminal zinc finger of the recombinant HIV-1 p7NC protein were performed as previously described (Rice et al., Science 270:1194, 1995). The p7NC protein was prepared at 20 μg/ml in 10 mM sodium phosphate buffer (pH 7.0), treated with 25 μM of each compound, then after indicated time intervals the samples were diluted 1/10 in 10 mM sodium phosphate buffer (pH 7.0) and the fluorescence intensity measured. The excitation and emission wavelengths utilized with the Shimadzu RF5000 spectrofluorimeter were 280 nm and 351 nm, respectively. In an alternate assay, the zinc-selective fluorescent probe N-(6-methoxy-8quinolyl-)-p-toluenesulfonamide (TSQ, Molecular Probes, Eugene, Oreg.) originally described by Fredrickson (J. Neurosci. Meth. 20:91, 1987) was utilized to measure zinc released from the p7NC protein in vitro. Briefly, 2 μM recombinant HIV-1 p7NC protein in 10 mM sodium phosphate buffer, pH 7.0, 10% glycerol was treated with 10 μM 624151 ([…] total volume in 96-well plates), and the time-dependent increase in fluorescence was measured on a Labsystems Fluoroskan II (360 nm excitation filter and 460 nm emission filter) over a period of 2 hours. Induction of alterations of p7NC proteins within intact virions involved treatment of HIV-1MN for 1 hour at 37° C. with 25 μM test compound. Samples were centrifuged 1 hour at 4° C. under 18,000×g to pellet the virus from the drug. Virus pellets were resolved by non-reducing SDS-PAGE and analyzed by immunoblot using monospecific rabbit antisera to the purified p7NC protein.
^b The percent decrease in RFU was calculated based on measurement of
the initial fluorescence of the p7NC protein before and 10 minutes after
treatment with the 25 μM of compound at ambient temperature.
The ability of 624151 to chemically interact with the zinc fingers of the HIV-1 p7NC protein was initially determined by a fluorescence assay (Rice et al., Science 270:1194-1197, (1995)) that measures a loss in intrinsic fluorescence of the tryptophan (Trp^37) residue in the second finger of the protein that occurs upon loss of zinc from the finger (Summers et al., Protein Sci. 1:563, 1992). […] As the 624151 modifies the zinc finger thiolates and the zinc is ejected over time, the metal is bound by the TSQ fluorochrome (FIG. 1(B)).
Sodium Phosphate buffer, pH 7.0 in 1 ml was treated with 25 μM of
compound. At indicated times, the mixture was diluted 1/10 and the
relative fluorescence units (RFU) measured in a Shimadzu RF5000
spectrofluorimeter with […] and Em = 351 mn. Following
loss of zinc from the Cterminal zinc finger, the Trp37 residue folds away
from the # aqueous environment and experiences a loss of fluorescence.

The next assay has as its target T2, HIV-1 integrase (Human immunodeficiency virus type 1 group M subtype B, UniProt P04585).
T2 construct: the purified HIV-1 protease and integrase enzymes
In words: HIV-1 integrase activity. The format is biochemical. To be noted: Table 6.

Assay [2] has as its system HIV-1RF. Kind of assay: effect of increasing multiplicity of infection, CEM-SS cells. To be noted: for pEC50: Human immunodeficiency virus 1, CEM-SS. The format is cell-based. How it is done: (§3) Initial anti-HIV screening was performed with CEM-SS cells and HIV-1RFusing the XTT cytoprotection assay as previously described (Weislow et al., J. National Cancer Inst. 81: 577-586, (1989)). HIV-1 isolates included common laboratory stains (RF, IIIB and MN), as well as a panel of HIV-1 clinical isolates (Cushman et al., J. Med. Chem. 37: 3040-3050, (1994)). The pyridone-resistant HIV-1A17 isolate (Nunberg et al., J. Virol., 65: 4887-4892 (1991)) was obtained from Emilio Emini at Merck Sharpe and Dohme Laboratories. Phytohemagglutinin-stimulated human peripheral blood lymphocytes (PBLs) and fresh monocyte-macrophage (Mono/MF) cultures were prepared and utilized in antiviral assays as previously described (Rice et al., Proc. Nat'l. Academy Science, USA 90: 9721-9724, (1993)); (Cushman et al., J. Med. Chem. 37: 3040-3050, (1994)). EC50 values for these cultures indicate the drug concentration that provided a 50% reduction in viral p24 production. […] The compounds can be synthesized according to the teachings of Singh et al., Sulfur Letters 8: 107-114, (1988). The 4,5-cis-dihydroxy(1,1-dioxy-1,2,-dithiohexane) compound (NSC 624151) has been abbreviated as 624151 for convenience. MT-2, MT-4, U1, HeLa-CD4-LTR-β-gal and 174xCEM cells were obtained from the AIDS Research and Reference Program (National Institute of Allergy and Infectious Disease, National Institutes of Health, Bethesda, Md. USA), as were the HIV-2MS and the AZT-resistant HIV-1G910-6 isolates.

The target of a further assay is T3, HIV-1 p66-p51 RT (Human immunodeficiency virus type 1 group M subtype B, UniProt P04585).
T3 construct: the purified HIV-1 p66-p51 RT enzyme
In words: reverse transcriptase activity assay. The format is biochemical. The note with it: nonphosphorylated control, in words. The method, then: The effects of 624151 on the in vitro activity of purified RT was determined by measurement of incorporation of [^3 H]TTP onto the poly(rA):oligo(dT)(rAdT) or poly(rC):oligo(dG)(rCdG) homopolymer template/primer systems. Samples (5 μL) were blotted onto DE81 paper, washed with 5% dibasic sodium phosphate as previously described (Buckheit et al., Antiviral Res. 21:247, (1993)), and then quantitated on a Packard Matrix 9600 dual beam counter. 3'-Azido-3'-deoxythymidine-5 '-triphosphateand UC38 (NSC 629243) served as positive controls for inhibition of RT. HIV-1 protease activity was quantitated by a reversed phase HPLC assay utilizing the […]Amide substrate (Multiple Peptide Systems, San Diego, Calif.) as previously described in Rice et al. (Proc. Nat'l. Academy of Science USA 9: 9721-9724, (1993)).

A further assay deals with HIV-1ADA. In words: antiviral assay in monocyte-macrophage cultures (p24). It is filed as cell-based. To be noted: Human immunodeficiency virus 1; HIV-1ADA, monocyte/macrophage cultures, 50% reduction in p24; read-out: Mo/M.PHI. EC50. How it is done: as §3, with “isolates. […]” for “isolates.”
In assay [3] the test system is monocyte-macrophage (Mo/M.PHI.) cultures. Kind of assay: cytotoxicity in monocyte-macrophage cultures. The format is cell-based. How it is done:
as §3

The pIC50 is the IC50 on a negative log10 scale, so that one unit is a factor of ten.

pEC50, pIC50: −log10 of the molar value. Several values for one entry are separate records, joined by “and”; a condition that tells them apart may be missing. Equal values may be shown once. Read-outs that look alike come from different tables or passages of the source.

For the molecule `O=S1(=O)C[C@H](O)[C@H](O)CS1` (single isomer, unassigned) [NSC 693195, (-)-cis-4,5-Dihydroxy-1,2-dithiane 1,1-dioxide], the pEC50 in the assay on HIV-1RF [1] (CEM-SS cells, HIV-1RF, read-out: XTT Assay EC50) is 5.06; in the assay with HIV-1RF [1] (Table 5, listed as 693195, read-out: EC50 Duplicates), 5.04 and 5.06; in the assay with HIV-1RF [1] (Table 5, listed as 693195, read-out: EC50 Mean), 5.06. In addition, the “EC50 relative to enantiomer or racemate” value in the assay on HIV-1RF [1] (in words) is listed as “about half that of the (+) enantiomer”. For the same molecule, the pIC50 with CEM-SS cells (Table 5, cytotoxicity, listed as 693195, read-out: IC50 Duplicates) was 3.89 and 3.87; with CEM-SS cells (Table 5, cytotoxicity, listed as 693195, read-out: IC50 Mean) it was 3.88; in the assay on CEM-SS cells (cytotoxicity, CEM-SS cells, read-out: XTT Assay IC50), 3.88. The “p7NC Trp37 Assay (RFU)” value at HIV-1 p7NC protein (0 min) amounted to 279 RFU; on HIV-1 p7NC protein (3 min) it was 117 RFU; at HIV-1 p7NC protein (10 min), 69 RFU; on HIV-1 p7NC protein (30 min), 45 RFU. Further, at HIV-1 integrase, the “inhibition of HIV-1 integrase” value is listed as “NI100”.

In the case of `Cc1cn([C@H]2C[C@H](N=[N+]=[N-])[C@@H](CO)O2)c(=O)[nH]c1=O` [AZT, 3'-azido-3'-deoxythymidine], the pEC50 was 8.27 in the assay with HIV-1RF [1] (Human immunodeficiency virus 1, CEM-SS, Table 5, read-out: EC50 Duplicates); 8.25 with HIV-1RF [1] (Human immunodeficiency virus 1, CEM-SS, Table 5, read-out: EC50 Mean); 8.24 in the assay on HIV-1RF [1] (Table 5, read-out: EC50 Duplicates); 7.72 in the assay on HIV-1RF [2] (MOI 0.01); 7.62 with HIV-1RF [2] (MOI 0.02); 5.80 with HIV-1RF [2] (MOI 0.04). Besides, the pEC50 in the assay with HIV-1RF [2] (MOI 0.08) is below 5.00; with HIV-1RF [2] (MOI 0.16), below 5.00; with HIV-1RF [2] (MOI 0.32), below 5.00; in the assay on HIV-1RF [2] (lowest MOI) it was 7.72. Moreover, the negative logarithm of the IC50 (pIC50) with CEM-SS cells (Homo sapiens, CEM-SS, Table 5, cytotoxicity, read-out: IC50 Mean) is below 6.00. Besides, the “loss of Trp37 fluorescence of p7NC” value at HIV-1 p7NC protein (FIG. 1(A), 25 μM, in words) was “not by AZT control”. Also, the “effect of increasing the MOI on activity” value in the assay on HIV-1RF [2] (in words) is “completely inactive after only a six-fold increase in the MOI”. Further, the “inhibition of RT activity” value at HIV-1 p66-p51 RT is “not inhibitory”.

Take `O=S1(=O)C[C@@H](O)[C@H](O)CS1` (relative stereo) [NSC 624152]: the pEC50 in the assay with HIV-1RF [1] (Human immunodeficiency virus 1, CEM-SS, CEM-SS cells, HIV-1RF, read-out: XTT Assay EC50) was 4.88; in the assay on HIV-1ADA, 5.04. Moreover, the “antiviral activity / efficacy” value in the assay on HIV-1RF [1] (in words) is recorded as “only a slight reduction in the antiviral efficacy”. Besides, the pIC50 with CEM-SS cells (Homo sapiens, CEM-SS, cytotoxicity, CEM-SS cells, read-out: XTT Assay IC50) is 3.87; in assay [3] it was below 4.00. The “reactivity with the zinc fingers” value on HIV-1 p7NC protein (in words) is on record as “equivalent reactivity with the zinc fingers”.
